Data from patent US4673690A, “Acylated enamides and pharmaceutical compositions containing them” (priority 1982, dated 1987).

Assays:
cytochrome P450 = test: Toxicity of doxorubicin in vivo: content of cytochrome P450 in the liver; design: species or system rats
Experimental: (§1) On the other hand the drop in benzo(a)pyrene hydroxylase activity is no more than 20% and the decrease in aldrin mono-oxygenase activity is reduced to 40%.
(§2) A single dose (10 mg/kg) of a composition containing equal amounts by weight of doxorubicin and of para-(methoxyphenylacetyl)-dehydroalanine was injected into rats. A 60% increase in the minimum content of cytochrome P450, a 20% increase in the benzo(a)pyrene hydroxylase activity and a 5% decrease in the aldrin mono-oxygenase activity were observed.

[1] = test system: benzo(a)pyrene hydroxylase; test: Toxicity of doxorubicin in vivo: benzo(a)pyrene hydroxylase activity in the liver; design: species or system rats
Experimental: as §1, §2

aldrin mono-oxygenase = test: Toxicity of doxorubicin in vivo: aldrin mono-oxygenase activity in the liver; design: species or system rats; conditions: rat
Experimental: as §1, §2

[2] = test system: Taper Liver Tumor cancer cells; test: Survival of mice inoculated with Taper Liver Tumor cells (Example 2); format: in vivo; conditions: cyclophosphamide alone, intraperitoneal, 48 hours after cancer cells
Experimental: A pharmaceutical composition is prepared by mixing 4 g of para-(methoxyphenylacetyl)-dehydroalanine obtained according to Example 1 and 3.2 g of cyclophosphamide.
One million "Taper Liver Tumor" cancer cells are injected intraperitoneally into a group of 10 mice each weighing about 30 g. 48 hours after this injection, the pharmaceutical composition described above is administered again intraperitoneally, in an amount of 180 mg per kg of mouse.
By way of comparison, a group of 10 similar mice to which likewise one million "Taper Liver Tumor" cancer cells have been administered is subjected solely to administration of cyclophosphamide, by intraperitoneal injection, 48 hours after administration of the cancer cells, and a group of 10 other similar mice, to which, again, one million "Taper Liver Tumor" cancer cells have been administered is not subjected to any further treatment whatsoever.

[3] = test system: Taper Liver Tumor cancer cells; test: Taper Liver Tumor in mice, variation of the amount of cyclophosphamide (Example 4); format: in vivo, NMRI strain; conditions: i.p.
Experimental: (§3) One million "Taper Liver Tumor" cancer cells are injected intraperitoneally into groups of twelve adult male mice, NMRI strain, the mice having a body weight of about 30 grams. 48 hours after this injection various pharmaceutical compositions according to the invention are administered, again intraperitoneally, to the mice, the amount of cyclophosphamide present in the composition administered being varied, and compositions only containing cyclophosphamide also being administered.
(§4) Thereafter, three parameters are measured:
(a) the variation of the mean weight of the mice on the fifth day after inoculation of the cancer tumour (V.M.W.)
(§5) (b) the median survival of 12 mice treated with a pharmaceutical composition according to the invention or treated with cyclophosphamide alone (M.S.)
(c) the prolongation of survival of the mice treated with a composition according to the invention relative to comparison mice treated with the same dose of cyclophosphamide (P.S).

[4] = test system: Taper Liver Tumor cancer cells; test: Taper Liver Tumor in mice, variation of the amount of S 86 (Example 3); format: in vivo, NMRI strain; conditions: cyclophosphamide 80 mg/kg alone, i.p.
Experimental: as §3, with “of para-(methoxyphenylacetyl)-dehydroalanine” for “of cyclophosphamide”, “also beino” for “also being”
as §4
(a) the variations of the mean weight of the mice on the fifth day after inoculation of the cancer tumour (V.M.W.)
as §5
(c) the prolongation of survival of the mice treated with a composition according to the invention relative to comparison mice treated with cyclophosphamide alone (P.S.).

Solubility = format: physicochemical
[5] = Lethal dose (LD50) in the mouse; conditions: in vivo
From the text: The results obtained are listed in the table below, the para-(methoxyphenylacetyl)-dehydroalanine being referred to by the code S 86.

L311 leukaemia cells = test: Survival of rats inoculated with L311 leukaemia cells (Example 6); format: in vivo, LOU/2 strain; conditions: doxorubicin alone, intraperitoneal
Experimental: A pharmaceutical composition is prepared by mixing 4 g of para-(methoxyphenylacetyl)-dehydroalanine obtained according to Example 1 and 0.2 g of doxorubicin.
One million L311 leukaemia cells are injected intraperitoneally into a group of six rats, LOU/2 strain, the mean body weight of the rats being 160 g. L311 leukaemia is a tumour transplantable in rats of strain LOU/2, the tumour being described in the article by C. Deckers, F. Mare, L. Deckers-Passeu and A. Trouet, Adriamycin Review, Part I, 1973, pages 79 to 86.
48 hours after this injection the pharmaceutical composition described above is administered to the rats, again intraperitoneally, in an amount of 105 mg per kg of rat.
By way of comparison, a group of twelve similar rats to which one million L311 leukaemia cells have also been administered is subjected solely to intraperitoneal administration of doxorubicin 48 hours after the administration of the L311 leukaemia cells, and a group of twelve similar rats to which one million L311 leukaemia cells have also been administered is given no subsequent treatment whatsoever.

[6] = cyclophosphamide 80 mg/kg alone
[7] = cyclophosphamide 180 mg/kg alone
[8] = cyclophosphamide 360 mg/kg alone
[9] = cyclophosphamide 450 mg/kg alone
[10] = cyclophosphamide 540 mg/kg alone
[11] = single dose of doxorubicin 10 mg/kg, subcutaneous, rat liver

NCCS [cysteamine]
protection against the effect of doxorubicin on the level of cytochrome P450 (cytochrome P450; rat, in vivo): does not protect
drop in benzo(a)pyrene hydroxylase activity ([1]; rat, in vivo): no more than 20%
decrease in aldrin mono-oxygenase activity (aldrin mono-oxygenase): 40%

O=P1(N(CCCl)CCCl)NCCCO1 (stereo not shown) [Cyclophosphamide, cyclophosphamide]
all die between (day of death) [2]: twenty-second day and the twenty-fifth day
median survival (M.S.) [3, 6]: 21 days
variation of the mean weight of the mice on the fifth day (V.M.W.) [3, 6]: -2.2
median survival (M.S.) [3, 7]: 23 days
variation of the mean weight of the mice on the fifth day (V.M.W.) [3, 7]: -4.4
median survival (M.S.) [3, 8]: 31 days
variation of the mean weight of the mice on the fifth day (V.M.W.) [3, 8]: -6.6
median survival (M.S.) [3, 9]: 20 days
variation of the mean weight of the mice on the fifth day (V.M.W.) [3, 9]: -14
median survival (M.S.) [3, 10]: 12 days
variation of the mean weight of the mice on the fifth day (V.M.W.) [3, 10]: -18.6
median survival (M.S.) [4]: 24 days
variation of the mean weight of the mice on the fifth day (V.M.W.) [4]: -1

C=C(NC(=O)Cc1ccc(OC)cc1)C(=O)O [S 86, para-(methoxyphenylacetyl)-dehydroalanine]
solubility of the product (Solubility): low solubility
LD50 [5]: > 400 mg/kg

COc1cccc2c1C(=O)c1c(O)c3c(c(O)c1C2=O)C[C@@](O)(C(=O)CO)C[C@@H]3O[C@H]1C[C@H](N)[C@H](O)[C@H](C)O1 [doxorubicin]
first death after administration of the leukaemia cells (L311 leukaemia cells): sixteen
mean length of survival after administration of the leukaemia cells (L311 leukaemia cells; 48 hours after leukaemia cells): 27.6 days
reduction in the minimum content of cytochrome P450 (cytochrome P450; [11]): 20%
benzo(a)pyrene hydroxylase activity (in words) [1, 11]: a drop in benzo(a)pyrene hydroxylase activity
